Entries after “also recorded” stand apart in the source; their conditions may differ.
What was measured:
NRel M. catarrhalis = details: released from dual-species biofilm by anti-rsPilA; cited from earlier work
[1] = tested on: NTHI (biofilm-resident, planktonic, anti-rsPilA NRel, anti-IHF NRel); assay: Antibiotic sensitivity of biofilm-resident, planktonic or NRel NTHI (2 h antibiotic exposure, CFU plating); type: cell-based, Nontypeable Haemophilus influenzae; details: for sensitivity to killing of anti-IHF NRel compared to planktonic NTHI / sensitivity to killing of anti-rsPilA NRel compared to planktonic NTHI: 2 h antibiotic at concentration killing ~20-25% of planktonic NTHI; for sensitivity to killing of time-matched anti-rsPilA NRel compared to planktonic NTHI: TMP-SMX 0.09 and 0.45 μg per ml, AMC 0.3 and 0.15 μg per ml
Method: Biofilms were established for 16 hr at 37° C. as described above. For biofilm-resident NTHI: biofilms were washed twice with DPBS and incubated in sBHI supplemented with the indicated antibiotics for at 37° C. 2 h. For planktonic NTHI: NTHI were incubated in sBHI for 3 hr as described above to reach log phase of growth, then diluted to the approximate concentration of either the anti-IHF (2×10^8 CFU/ml) or anti-rsPilA NRels (3×10^8 CFU/ml) to permit comparison between anti-IHF or anti-rsPilA NRels, (see FIG. 1). Planktonic NTHI were incubated with the indicated antibiotics at 37° C. for 2 hr. For NRel NTHI: anti-IHF or anti-rsPilA NRel, generated and collected as described above were incubated at 37° C. for 2 hr with the indicated antibiotics. CFU NTHI were determined by serial dilution and plating. Amoxicillin (Sigma-Aldrich, St. Louis, MO) and clavulanate (U.S. Pharmacopeia, Rockville, MD) were used at a ratio of 2:1. Trimethoprim (Sigma-Aldrich) and sulfamethoxazole (Santa Cruz Biotech, Dallas, TX) were used at a ratio of 1:5. […] All experiments were performed at least three times on separate days with two technical replicates for each treatment and control group.
To avoid excessive manipulation or dilution of NRel NTHI, and to permit direct comparison of equal numbers of planktonic and NRel, the planktonic cell density was adjusted to the same CFU per ml as the NRel population in each experiment as follows: NTHI were incubated statically to mid log phase growth then diluted to either 3×10^8 CFU/ml for comparison with anti-rsPilA NRel collected at 6 h, or to 2×10^8 CFU/ml for comparison with anti-IHF NRel collected at 15 min (see FIG. 1). Applicant then determined the concentrations of amoxicillin (Sigma-Aldrich, St. Louis, MO) and clavulanate (U.S. Pharmacopeia, Rockville, MD), or of trimethoprim (Sigma-Aldrich) and sulfamethoxazole (Santa Cruz Biotech, Dallas, TX) that killed approximately 25% of planktonic NTHI at each density. The same antibiotic concentrations were used for the anti-IHF or anti-rsPilA NRel, the density-matched (same CFU/ml) planktonic NTHI, and the adherent biofilm for each relevant experiment. […] Applicant then assessed killing of anti-IHF or anti-rsPilA NRel by concentrations of amoxicillin plus clavulanic acid (“augmentin”, AMC) or trimethoprim plus sulfamethoxazole (TMP-SMX) that killed 25% of the planktonic NTHI at the same density.
Anti-rsPilA or anti-IHF NRel were collected and sonicated as described above. After sonication for 2 min in a water bath sonicator to break up any NTHI aggregates, NRel or planktonic NTHI were incubated with the indicated antibiotics at 37° C. for 2 h, then serially diluted and plated on chocolate agar to quantify viable NTHI. To assay biofilm-resident NTHI, biofilms were established for 16 h at 37° C. as described above, washed twice with DPBS and incubated in sBHI supplemented with the indicated antibiotics at 37° C. After 2 h, biofilm-resident NTHI were collected by forceful pipetting, sonicated for 2 min and enumerated as described above. All experiments were performed at least three times on separate days with two or three technical replicates for each treatment and control group.

[2] = tested on: NRel versus Non-Associated NTHI
Text: Applicant tested for this phenotype for either Amox/Clav or Trimethoprim/Sulfamethoxazole to determine when this sensitivity first appears and how long this NRel phenotype lasts (i.e. what is the window of opportunity in which to treat a patient with a biofilm disease?). Here, NRel are compared not to planktonic bacteria (due to their artificiality) but rather to “Non-Associated” bacteria which are those found in the supernatant above the biofilm but not associated with biofilm residence as this population represents those bacteria that naturally come off the biofilm or were never a part of the biofilm which is a normal aspect of the preferred bacterial lifestyle in nature. […] Box Legend: NRelAC—relative killing by Amox/Clav; NRel TS—relative killing by Trimethoprim/Sulfamethoxazole; open symbols are the same but for the non-associated populations of bacteria as now described in this legend. Data was generated with a murine anti-tip chimer antibody.
Box Legend: NRelAC—relative killing by Amox/Clav; NRel TS—relative killing by Trimethoprim/Sulfamethoxazole; open symbols are the same but for the non-associated populations of bacteria as now described in this legend. Data was generated with a murine anti-tip chimer antibody.

NRel NTHI = details: released from dual-species biofilm by anti-rsPilA; cited from earlier work
[3] = after exposure to antibodies against rsPilA

In the case of `CC[C@H]1OC(=O)[C@H](C)[C@@H](O[C@H]2C[C@@](C)(OC)[C@@H](O)[C@H](C)O2)[C@H](C)[C@@H](O[C@@H]2O[C@H](C)C[C@H](N(C)C)[C@H]2O)[C@](C)(OC)C[C@@H](C)C(=O)[C@H](C)[C@@H](O)[C@]1(C)O` [clarithromycin], the “susceptibility of NRel M. catarrhalis compared to those from growth on agar” value (NRel M. catarrhalis) is listed as “more susceptible”.
With trimethoprim and sulfamethoxazole [T/S] the “sensitivity of biofilm-resident NTHI to killing” value ([1]; 16 h biofilm, 2 h antibiotic) was “minimal sensitivity”, the “sensitivity to killing of anti-IHF NRel compared to biofilm-resident NTHI” value ([1]; NRel after 15 min anti-IHF, 2 h antibiotic) was “significantly more sensitive” and the “sensitivity to killing of anti-IHF NRel compared to planktonic NTHI” value ([1]; NRel after 15 min anti-IHF) was “only equally as sensitive”. The “sensitivity to killing of anti-IHF NRel compared to planktonic NTHI” value ([1]; NRel after 15 min anti-IHF, listed as TMP-SMX) was “only equally as sensitive”, the “sensitivity to killing of anti-rsPilA NRel compared to biofilm-resident NTHI” value ([1]; NRel after 6 h anti-rsPilA, 2 h antibiotic) was “significantly more sensitive” and the “sensitivity to killing of anti-rsPilA NRel compared to planktonic NTHI” value ([1]; NRel after 6 h anti-rsPilA) was “significantly more sensitive; also recorded: significantly greater”. The “sensitivity to killing of anti-rsPilA NRel compared to planktonic NTHI” value ([1]; NRel after 6 h anti-rsPilA, listed as TMP-SMX) was “significantly greater”, the “sensitivity to killing of time-matched anti-rsPilA NRel compared to planktonic NTHI” value ([1]; NRel collected after 2 h, listed as TMP-SMX) was “significantly more susceptible” and the “sensitivity to killing of time-matched anti-rsPilA NRel compared to planktonic NTHI” value ([1]; NRel collected after 2 h, listed as TMP/SMX) was “significantly more sensitive”. The “sensitivity to killing of time-matched anti-IHF NRel compared to planktonic NTHI” value ([1]; NRel collected after 2 h, TMP-SMX 0.94 and 4.7 μg/ml, AMC 2.5 and 1.25 μg/ml) was “only equally as sensitive; also recorded: equally susceptible”, the “sensitivity of anti-DNABII NRel to killing compared to Non-Associated bacteria” value ([2]; NRel induced with murine anti-tip chimer antibody) was “as but not more sensitive” and the “sensitivity of anti-rsPilA NRel to being killed compared to Non-Associated bacteria” value ([2]; NTHI released by antibody against rsPilA) was “significantly greater sensitivity”. For the same compound, the “time at which greater sensitivity of anti-rsPilA NRel appears” value [2, 3] was “approximately one”, the “time at which the sensitive phenotype of anti-rsPilA NRel remains” value [2, 3] was at least 6 h and the “susceptibility of NRel NTHI compared to those from growth on agar” value (NRel NTHI) was “more susceptible”.

Source: patent US12116614B2, “Methods for determining antibiotic sensitivity” (priority 2020, dated 2024)
